According to PubChem BioAssay (NCI):
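The concentration for 50% growth inhibition is given as GI50. TGI marks complete inhibition of growth.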

How the values were obtained:
Assay in all cases: growth of human tumour cells (NCI), 384-well format
[1] = tested on: ACHN renal
[2] = tested on: MOLT-4 leukemia
[3] = tested on: RPMI-8226 leukemia
[4] = tested on: SK-MEL-5 melanoma
[5] = tested on: HOP-62 NSCLC
[6] = tested on: OVCAR-4 ovarian
[7] = tested on: OVCAR-8 ovarian
[8] = tested on: SNB-19 CNS
[9] = tested on: HL-60(TB) leukemia
[10] = tested on: LOX IMVI melanoma
[11] = tested on: K-562 leukemia
[12] = tested on: EKVX NSCLC
[13] = tested on: SF-295 CNS
[14] = tested on: HCT-15 colon
[15] = tested on: IGROV1 ovarian
[16] = tested on: CAKI-1 renal
[17] = tested on: SK-MEL-28 melanoma
[18] = tested on: CCRF-CEM leukemia
[19] = tested on: HOP-92 NSCLC
[20] = tested on: SNB-75 CNS
[21] = tested on: MALME-3M melanoma
[22] = tested on: HCT-116 colon
[23] = tested on: UACC-257 melanoma
[24] = tested on: COLO 205 colon
[25] = tested on: SK-MEL-2 melanoma
[26] = tested on: TK-10 renal
[27] = tested on: U251 glioblastoma
[28] = tested on: 786-0 renal
[29] = tested on: MCF7 breast
[30] = tested on: RXF 393 renal
[31] = tested on: A549 NSCLC
[32] = tested on: NCI-H322M lung
[33] = tested on: SW-620 colon
[34] = tested on: NCI-H522 lung
[35] = tested on: NCI/ADR-RES ovarian
[36] = tested on: SK-OV-3 ovarian
[37] = tested on: MDA-MB-435 melanoma
[38] = tested on: SN12C renal
[39] = tested on: SF-539 CNS
[40] = tested on: DU-145 prostate
[41] = tested on: MDA-MB-468 breast
[42] = tested on: NCI-H23 lung
[43] = tested on: BT-549 breast
[44] = tested on: HCC-2998 colon
[45] = tested on: A498 renal
[46] = tested on: OVCAR-3 ovarian
[47] = tested on: SF-268 CNS
[48] = tested on: NCI-H460 NSCLC
[49] = tested on: HS 578T breast
[50] = tested on: KM12 colon
[51] = tested on: PC-3 prostate
[52] = tested on: NCI-H226 lung
[53] = tested on: UACC-62 melanoma
[54] = tested on: M14 melanoma
[55] = tested on: HT29 colon

CC(C)N=C(N)/N=C(\N)Nc1ccc2ccc3ccccc3c2c1
GI50 [1]: 1.59 µM
TGI [1]: 2.95 µM
GI50 [2]: 1.36 µM
TGI [2]: 2.65 µM
GI50 [3]: 1.72 µM
TGI [3]: 3.1 µM
GI50 [4]: 1.11 µM
TGI [4]: 2.33 µM
GI50 [5]: 2.07 µM
TGI [5]: 3.51 µM
GI50 [6]: 1.3 µM
TGI [6]: 2.58 µM
GI50 [7]: 1.7 µM
TGI [7]: 3.1 µM
GI50 [8]: 1.76 µM
TGI [8]: 3.16 µM
GI50 [9]: 1.41 µM
TGI [9]: 2.72 µM
GI50 [10]: 1.56 µM
TGI [10]: 2.92 µM
GI50 [11]: 1.89 µM
TGI [11]: 3.3 µM
GI50 [12]: 1.66 µM
TGI [12]: 3.06 µM
GI50 [13]: 1.65 µM
TGI [13]: 3.02 µM
GI50 [14]: 1.67 µM
TGI [14]: 3.07 µM
GI50 [15]: 1.02 µM
TGI [15]: 2.21 µM
GI50 [16]: 1.48 µM
TGI [16]: 2.82 µM
GI50 [17]: 1.85 µM
TGI [17]: 3.27 µM
GI50 [18]: 1.44 µM
TGI [18]: 2.77 µM
GI50 [19]: 1.56 µM
TGI [19]: 2.9 µM
GI50 [20]: 1.61 µM
TGI [20]: 2.96 µM
GI50 [21]: 1.43 µM
TGI [21]: 2.75 µM
GI50 [22]: 1.71 µM
TGI [22]: 3.14 µM
GI50 [23]: 1.48 µM
TGI [23]: 2.82 µM
GI50 [24]: 1.76 µM
TGI [24]: 3.16 µM
GI50 [25]: 1.84 µM
TGI [25]: 3.24 µM
GI50 [26]: 1.73 µM
TGI [26]: 3.11 µM
GI50 [27]: 1.79 µM
TGI [27]: 3.19 µM
GI50 [28]: 1.75 µM
TGI [28]: 3.14 µM
GI50 [29]: 0.507 µM
TGI [29]: 1.85 µM
GI50 [30]: 1.58 µM
TGI [30]: 2.93 µM
GI50 [31]: 1.73 µM
TGI [31]: 3.14 µM
GI50 [32]: 1.84 µM
TGI [32]: 3.25 µM
GI50 [33]: 1.8 µM
TGI [33]: 3.23 µM
GI50 [34]: 1.56 µM
TGI [34]: 2.91 µM
GI50 [35]: 10 µM
TGI [35]: 21.8 µM
GI50 [36]: 1.42 µM
TGI [36]: 2.73 µM
GI50 [37]: 1.73 µM
TGI [37]: 3.12 µM
GI50 [38]: 1.65 µM
TGI [38]: 3.02 µM
GI50 [39]: 1.74 µM
TGI [39]: 3.13 µM
GI50 [40]: 1.79 µM
TGI [40]: 3.23 µM
GI50 [41]: 0.242 µM
TGI [41]: 1.47 µM
GI50 [42]: 1.53 µM
TGI [42]: 2.86 µM
GI50 [43]: 1.49 µM
TGI [43]: 2.83 µM
GI50 [44]: 1.4 µM
TGI [44]: 2.71 µM
GI50 [45]: 1.56 µM
TGI [45]: 2.91 µM
GI50 [46]: 1.6 µM
TGI [46]: 2.95 µM
GI50 [47]: 1.87 µM
TGI [47]: 3.29 µM
GI50 [48]: 1.75 µM
TGI [48]: 3.17 µM
GI50 [49]: 1.72 µM
TGI [49]: 3.1 µM
GI50 [50]: 1.82 µM
TGI [50]: 3.25 µM
GI50 [51]: 1.52 µM
TGI [51]: 2.87 µM
GI50 [52]: 1.64 µM
TGI [52]: 3.01 µM
GI50 [53]: 1.49 µM
TGI [53]: 2.83 µM
GI50 [54]: 1.89 µM
TGI [54]: 3.3 µM
GI50 [55]: 1.71 µM
TGI [55]: 3.13 µM
